Data taken from the supplement of paper PMC10307832.

Columns and labels:
Experiment in all cases: relative viability (nuclei count vs DMSO), 5 days (fraction); higher = more cells survive
NCI-H2009 = tested on: NCI-H2009
How it was run: (§1)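 One day after seeding in 1536-well plates, lung cancer cell lines were dosed by pin tool. Dosing was either single-drug or a fixed anchor-drug dose plus five library-drug doses (not always all listed) in √10 steps. After 5 days, nuclei were stained in one fix-and-stain step and counted on 4× images, and relative viability is the nuclei count of treated wells over that of vehicle wells, given as the median of duplicate plates.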

NCI-H2170 = tested on: NCI-H2170
How it was run: as §1

NCI-H2342 = tested on: NCI-H2342
How it was run: as §1

NCI-H2347 = tested on: NCI-H2347
How it was run: as §1

NCI-H322M = tested on: NCI-H322M
How it was run: as §1

NCI-H358 = tested on: NCI-H358
How it was run: as §1

NCI-H522 = tested on: NCI-H522
How it was run: as §1

NCI-H647 = tested on: NCI-H647
How it was run: as §1

NCI-H838 = tested on: NCI-H838
How it was run: as §1

PC-14 = tested on: PC-14
How it was run: as §1

SK-MES-1 = tested on: SK-MES-1
How it was run: as §1

UMC-11 = tested on: UMC-11
How it was run: as §1

## Clc1ccc(Nc2nnc(Cc3ccncc3)c3ccccc23)cc1 [Vatalanib] + Nc1ncn([C@H]2C[C@H](O)[C@@H](CO)O2)c(=O)n1 [Decitabine] (partner 2 µM)
NCI-H2009; first compound 0.4 µM
  relative viability: 0.343
NCI-H2009; first compound 1.265 µM
  relative viability: 0.404
NCI-H2009; first compound 4 µM
  relative viability: 0.396
NCI-H2170; first compound 0.04 µM
  relative viability: 0.479
NCI-H2170; first compound 0.1265 µM
  relative viability: 0.474
NCI-H2170; first compound 0.4 µM
  relative viability: 0.488
NCI-H2170; first compound 1.265 µM
  relative viability: 0.469
NCI-H2170; first compound 4 µM
  relative viability: 0.487
NCI-H2342; first compound 0.04 µM
  relative viability: 0.611
NCI-H2342; first compound 0.1265 µM
  relative viability: 0.781
NCI-H2342; first compound 0.4 µM
  relative viability: 0.718
NCI-H2342; first compound 1.265 µM
  relative viability: 0.736
NCI-H2342; first compound 4 µM
  relative viability: 0.641
NCI-H2347; first compound 0.04 µM
  relative viability: 0.616
NCI-H2347; first compound 0.1265 µM
  relative viability: 0.62
NCI-H2347; first compound 0.4 µM
  relative viability: 0.624
NCI-H2347; first compound 1.265 µM
  relative viability: 0.602
NCI-H2347; first compound 4 µM
  relative viability: 0.64
NCI-H322M; first compound 0.04 µM
  relative viability: 0.769
NCI-H322M; first compound 0.1265 µM
  relative viability: 0.687
NCI-H322M; first compound 0.4 µM
  relative viability: 0.786
NCI-H322M; first compound 4 µM
  relative viability: 0.663
NCI-H358; first compound 0.04 µM
  relative viability: 0.23
NCI-H358; first compound 0.1265 µM
  relative viability: 0.204
NCI-H358; first compound 0.4 µM
  relative viability: 0.246
NCI-H358; first compound 1.265 µM
  relative viability: 0.21
NCI-H358; first compound 4 µM
  relative viability: 0.234
NCI-H522; first compound 0.04 µM
  relative viability: 0.711
NCI-H522; first compound 0.1265 µM
  relative viability: 0.685
NCI-H522; first compound 0.4 µM
  relative viability: 0.698
NCI-H522; first compound 1.265 µM
  relative viability: 0.696
NCI-H522; first compound 4 µM
  relative viability: 0.596
NCI-H647; first compound 0.04 µM
  relative viability: 0.4
NCI-H647; first compound 0.1265 µM
  relative viability: 0.375
NCI-H647; first compound 0.4 µM
  relative viability: 0.562
NCI-H647; first compound 1.265 µM
  relative viability: 0.36
NCI-H647; first compound 4 µM
  relative viability: 0.375
NCI-H838; first compound 0.04 µM
  relative viability: 0.435
NCI-H838; first compound 0.1265 µM
  relative viability: 0.467
NCI-H838; first compound 0.4 µM
  relative viability: 0.441
NCI-H838; first compound 1.265 µM
  relative viability: 0.483
NCI-H838; first compound 4 µM
  relative viability: 0.448
PC-14; first compound 0.04 µM
  relative viability: 0.231
PC-14; first compound 0.1265 µM
  relative viability: 0.213
PC-14; first compound 0.4 µM
  relative viability: 0.219
PC-14; first compound 1.265 µM
  relative viability: 0.174
PC-14; first compound 4 µM
  relative viability: 0.253
SK-MES-1; first compound 0.04 µM
  relative viability: 0.358
SK-MES-1; first compound 0.1265 µM
  relative viability: 0.342
SK-MES-1; first compound 0.4 µM
  relative viability: 0.415
SK-MES-1; first compound 1.265 µM
  relative viability: 0.287
SK-MES-1; first compound 4 µM
  relative viability: 0.353
UMC-11; first compound 0.04 µM
  relative viability: 1.08
UMC-11; first compound 0.1265 µM
  relative viability: 0.624
UMC-11; first compound 0.4 µM
  relative viability: 0.462
UMC-11; first compound 1.265 µM
  relative viability: 0.563
UMC-11; first compound 4 µM
  relative viability: 0.619
